Measurements as given in US12667101B2, “Picolinamide derivatives useful as agricultural fungicides” (GLOBACHEM NV, priority 2019, dated 2026).
In brackets after ≈: the same amount, converted by molar mass.

Test system: Zymoseptoria tritici
Assay: Fungicidal activity screen in amended agar, 96 well plates
Format: cell-based
Conditions: 168 h, 1% potato dextrose agar amended to 20, 2, 0.2 and 0.02 ppm, 10,000 spores/mL, 18° C., assessed after 7 days, read-out: Zymoseptoria (EC50 ranking of fungal growth vs DMSO controls)
Description: Compounds were screened in 96 well plates with 10 compounds per plate. Each compound was screened using agar amended to 20, 2, 0.2 and 0.02 ppm of the test material. Proline at 50 and 10 ppm and 0.2% DMSO were used respectively as positive and negative controls. Each test concentration and standard were tested twice on a plate.
Compounds were screened against Zymoseptoria tritici. The agar used in the test was 1% potato dextrose agar. Sufficient spores were added to the appropriate agar to give 10,000 spores/mL agar.
A ×10 stock solution in 2% DMSO was produced for each dose i.e. 200, 20, 2 and 0.2 ppm, and 10 μl of this added to the appropriate wells on the plate. An equivalent amount of 2% DMSO and Proline stock at 500 and 100 ppm were added for the controls. To each well, 90 μl of the appropriate agar spore suspension was added to give the final well concentrations outlined in the first paragraph.
Plates were incubated at room temperature (18° C.) and assessed after 7 days.
The amount of fungal growth in each well was compared to the DMSO controls and scored according to the following key: • A—EC50<2 ppm • B—2≤EC50<20 • C—EC50≥20 • D—No activity detected at the highest dose tested • NT—Not tested

| SMILES | EC50 |
| --- | --- |
| COc1ccnc2c(=O)n(-c3ccc4nc(OC(C)C(C)C)ccc4c3)c(=S)oc12 (stereo not shown) [Example 39, 8-methoxy-3-(2-((3-methylbutan-2-yl)oxy)quinolin-6-yl)-2-thioxo-2,3-dihydro-4H-pyrido[2,3-e][1,3]oxazin-4-one] | ≥ 20 µg/mL |
| COc1ccnc(C(=O)Nc2ccc3nc(OC(C)C)ccc3c2)c1O [Example 5, 3-hydroxy-N-(2-isopropoxyquinolin-6-yl)-4-methoxypicolinamide] | < 2 µg/mL |
| COc1ccnc(C(=O)Nc2ccc3nc(Oc4cccnc4Cl)ccc3c2)c1O [Example 27, N-(2-((2-chloropyridin-3-yl)oxy)quinolin-6-yl)-3-hydroxy-4-methoxypicolinamide] | ≥ 20 µg/mL |
| COc1ccnc(C(=O)Nc2ccc3cc(-c4ccccc4)ccc3n2)c1O [Example 16, 3-hydroxy-4-methoxy-N-(6-phenylquinolin-2-yl)picolinamide] | 2 to 20 µg/mL (≈ 5.39 to 53.9 µM) |
| CCCCCc1cc(Oc2ccc(F)cc2)nc2ccc(NC(=O)c3nccc(OC)c3OC(C)=O)cc12 [Example 31, 2-((2-(4-fluorophenoxy)-4-pentylquinolin-6-yl)carbamoyl)-4-methoxypyridin-3-yl acetate] | ≥ 20 µg/mL |
| COc1ccccc1Oc1ccc2cc(NC(=O)c3nccc(OC)c3O)ccc2n1 [Example 22, 3-hydroxy-4-methoxy-N-(2-(2-methoxyphenoxy)quinolin-6-yl)picolinamide] | ≥ 20 µg/mL |
| COc1ccnc2c(=O)n(-c3ccc4nc(N(C)c5ccccc5Cl)ccc4c3)c(=S)oc12 [Example 42, 3-(2-((2-chlorophenyl)(methyl)amino)quinolin-6-yl)-8-methoxy-2-thioxo-2,3-dihydro-4H-pyrido[2,3-e][1,3]oxazin-4-one] | 2 to 20 µg/mL (≈ 4.19 to 41.9 µM) |
| COc1ccnc(C(=O)Nc2ccc3nc(Oc4ccccc4Cl)ccc3c2)c1OC(C)=O [Example 30, 2-((2-(2-chlorophenoxy)quinolin-6-yl)carbamoyl)-4-methoxypyridin-3-yl acetate] | 2 to 20 µg/mL |
| COc1ccnc(C(=O)Nc2ccc3cc(Br)ccc3n2)c1OC(C)=O [Example 17, 2-((6-bromoquinolin-2-yl)carbamoyl)-4-methoxypyridin-3-yl acetate] | 2 to 20 µg/mL |
| COc1ccnc(C(=O)Nc2ccc3nc(N(C)c4cccnc4Cl)ccc3c2)c1OC(C)=O [Example 34, 2-((2-((2-chloropyridin-3-yl)(methyl)amino)quinolin-6-yl)carbamoyl)-4-methoxypyridin-3-yl acetate] | ≥ 20 µg/mL |
| COc1ccnc(C(=O)Nc2ccc3cc(-c4ccccc4)ccc3n2)c1OC(C)=O [Example 18, 4-methoxy-2-((6-phenylquinolin-2-yl)carbamoyl)pyridin-3-yl acetate] | 2 to 20 µg/mL |
| COc1ccnc2c(=O)n(-c3ccc4nc(Oc5cccnc5Cl)ccc4c3)c(=S)oc12 [Example 44, 3-(2-((2-chloropyridin-3-yl)oxy)quinolin-6-yl)-8-methoxy-2-thioxo-2,3-dihydro-4H-pyrido[2,3-e][1,3]oxazin-4-one] | ≥ 20 µg/mL |
| COc1ccnc(C(=O)Nc2ccc3cc(Cc4ccccc4)ccc3n2)c1O [Example 14, N-(6-benzylquinolin-2-yl)-3-hydroxy-4-methoxypicolinamide] | ≥ 20 µg/mL |
| COc1ccnc2c(=O)n(-c3ccc4nc(Sc5cccnc5Cl)ccc4c3)c(=S)oc12 [Example 45, 3-(2-((2-chloropyridin-3-yl)thio)quinolin-6-yl)-8-methoxy-2-thioxo-2,3-dihydro-4H-pyrido[2,3-e][1,3]oxazin-4-one] | ≥ 20 µg/mL |
| CCC(C)Oc1ccc2cc(NC(=O)c3nccc(OC)c3O)ccc2n1 (stereo not shown) [Example 11, N-(2-(sec-butoxy)quinolin-6-yl)-3-hydroxy-4-methoxypicolinamide] | < 2 µg/mL |
| CCCCOc1ccc2cc(NC(=O)c3nccc(OC)c3O)ccc2n1 [Example 4, N-(2-butoxyquinolin-6-yl)-3-hydroxy-4-methoxypicolinamide] | 2 to 20 µg/mL (≈ 5.44 to 54.4 µM) |
| COc1ccnc(C(=O)Nc2ccc3nc(Sc4cccnc4Cl)ccc3c2)c1OC(C)=O [Example 35, 2-((2-((2-chloropyridin-3-yl)thio)quinolin-6-yl)carbamoyl)-4-methoxypyridin-3-yl acetate] | 2 to 20 µg/mL |
| COc1ccnc(C(=O)Nc2ccc3nc(Sc4ccccc4Cl)ccc3c2)c1OC(C)=O [Example 33, 2-((2-((2-chlorophenyl)thio)quinolin-6-yl)carbamoyl)-4-methoxypyridin-3-yl acetate] | ≥ 20 µg/mL |
| COc1ccnc(C(=O)Nc2ccc3nc(OC(C)C(C)C)ccc3c2)c1O (stereo not shown) [Example 6, 3-hydroxy-4-methoxy-N-(2-((3-methylbutan-2-yl)oxy)quinolin-6-yl)picolinamide] | < 2 µg/mL |
| COc1ccnc2c(=O)n(-c3ccc4nc(Sc5ccccc5Cl)ccc4c3)c(=S)oc12 [Example 43, 3-(2-((2-chlorophenyl)thio)quinolin-6-yl)-8-methoxy-2-thioxo-2,3-dihydro-4H-pyrido[2,3-e][1,3]oxazin-4-one] | ≥ 20 µg/mL |
| CCOc1ccc2cc(NC(=O)c3nccc(OC)c3O)ccc2n1 [Example 1, N-(2-ethoxyquinolin-6-yl)-3-hydroxy-4-methoxypicolinamide] | 2 to 20 µg/mL (≈ 5.89 to 58.9 µM) |
| COc1ccnc(C(=O)Nc2ccc3nc(Sc4ccccc4Cl)ccc3c2)c1O [Example 26, N-(2-((2-chlorophenyl)thio)quinolin-6-yl)-3-hydroxy-4-methoxypicolinamide] | < 2 µg/mL |
| COc1ccnc(C(=O)Nc2ccc3nc(Oc4ccc(F)cc4)ccc3c2)c1OC(C)=O [Example 19, 2-((2-(4-fluorophenoxy)quinolin-6-yl)carbamoyl)-4-methoxypyridin-3-yl acetate] | < 2 µg/mL |
| COc1ccnc2c(=O)n(-c3ccc4nc(Sc5ccc(F)cc5)ccc4c3)c(=S)oc12 [Example 37, 3-(2-((4-fluorophenyl)thio)quinolin-6-yl)-8-methoxy-2-thioxo-2,3-dihydro-4H-pyrido[2,3-e][1,3]oxazin-4-one] | < 2 µg/mL |
| CCC(C)Oc1ccc2cc(-n3c(=S)oc4c(OC)ccnc4c3=O)ccc2n1 (stereo not shown) [Example 38, 3-(2-(sec-butoxy)quinolin-6-yl)-8-methoxy-2-thioxo-2,3-dihydro-4H-pyrido[2,3-e][1,3]oxazin-4-one] | 2 to 20 µg/mL (≈ 4.88 to 48.8 µM) |
| COc1ccnc(C(=O)Nc2ccc3nc(N(C)c4ccc(F)cc4)ccc3c2)c1O [Example 8, N-(2-((4-fluorophenyl)(methyl)amino)quinolin-6-yl)-3-hydroxy-4-methoxypicolinamide] | < 2 µg/mL |
| COc1ccnc2c(=O)n(-c3ccc4nc(Oc5ccccc5Cl)ccc4c3)c(=S)oc12 [Example 40, 3-(2-(2-chlorophenoxy)quinolin-6-yl)-8-methoxy-2-thioxo-2,3-dihydro-4H-pyrido[2,3-e][1,3]oxazin-4-one] | < 2 µg/mL |
| COc1ccnc(C(=O)Nc2ccc3nc(Oc4cccnc4Cl)ccc3c2)c1OC(C)=O [Example 36, 2-((2-((2-chloropyridin-3-yl)oxy)quinolin-6-yl)carbamoyl)-4-methoxypyridin-3-yl acetate] | ≥ 20 µg/mL |
